In ChEMBL document CHEMBL1201862, “PubChem BioAssay data set” (2004):
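Step 1: Grow cells in 96-well plates. Step 2: Expose to compound for 48 hours at 5 concentrations. Step 3: Interpolate endpoints linearly; if unreached, use highest concentration. At the GI50, growth is halved.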 Active and inactive are the calls of the source. No stated cut-off is given here; in the data, active = GI50 up to about 1.1 µM and inactive = higher.

How the values were obtained:
Experiment in all cases: growth of human tumour cells (NCI), 48 h
SN12C = system: SN12C
EKVX = system: EKVX
BT-549 = system: BT-549
SW-620 = system: SW-620
HT-29 = system: HT-29
M14 = system: M14
SK-MEL-28 = system: SK-MEL-28
UO-31 = system: UO-31
MOLT-4 = system: MOLT-4
COLO 205 = system: COLO 205
DU-145 = system: DU-145
UACC-62 = system: UACC-62
SK-OV-3 = system: SK-OV-3
SNB-19 = system: SNB-19
RXF 393 = system: RXF 393
Malme-3M = system: Malme-3M
OVCAR-5 = system: OVCAR-5
MCF7 = system: MCF7
LOX IMVI = system: LOX IMVI
HOP-92 = system: HOP-92

SMILES	GI50 (SN12C)	GI50 (EKVX)	GI50 (BT-549)	GI50 (SW-620)	GI50 (HT-29)	GI50 (M14)	GI50 (SK-MEL-28)	GI50 (UO-31)	GI50 (MOLT-4)	GI50 (COLO 205)	GI50 (DU-145)	GI50 (UACC-62)	GI50 (SK-OV-3)	GI50 (SNB-19)	GI50 (RXF 393)	GI50 (Malme-3M)	GI50 (OVCAR-5)	GI50 (MCF7)	GI50 (LOX IMVI)	GI50 (HOP-92)
CN(C)Cc1cc(/C=C/C(=O)c2ccc(Br)cc2)cc(CN(C)C)c1O	15.6 µM (inactive)	20.2 µM (inactive)	15.1 µM (inactive)	19.1 µM (inactive)	18.8 µM (inactive)	31.2 µM (inactive)	17.1 µM (inactive)	10.7 µM (inactive)	9.95 µM (inactive)	14.6 µM (inactive)	15.7 µM (inactive)	20.4 µM (inactive)	29.8 µM (inactive)	20.3 µM (inactive)	19.2 µM (inactive)	16.7 µM (inactive)	35.2 µM (inactive)	22.6 µM (inactive)		
N#CC1(c2ccccc2)CCN(C2(c3ccccc3)CCCCC2)CC1	> 100 µM (inactive)	> 100 µM (inactive)	> 100 µM (inactive)	> 100 µM (inactive)	> 100 µM (inactive)	> 100 µM (inactive)	> 100 µM (inactive)	> 100 µM (inactive)	> 100 µM (inactive)	> 100 µM (inactive)	> 100 µM (inactive)	> 100 µM (inactive)	> 100 µM (inactive)	> 100 µM (inactive)	> 100 µM (inactive)	8.83 µM (inactive)	> 100 µM (inactive)	> 100 µM (inactive)	> 100 µM (inactive)	
Cc1nnc2sc(Cl)nn12	32.4 µM (inactive)	24.9 µM (inactive)	17.7 µM (inactive)	3.92 µM (inactive)	16.7 µM (inactive)	13.6 µM (inactive)	19.4 µM (inactive)	29.6 µM (inactive)	5.65 µM (inactive)	14.5 µM (inactive)	34.4 µM (inactive)	4.51 µM (inactive)	17.3 µM (inactive)	44.8 µM (inactive)	> 10 µM (inactive)	22.1 µM (inactive)	23 µM (inactive)	13.3 µM (inactive)	10 µM (inactive)	
O=c1[nH]nc(Cc2ccc(Cl)cc2)n1Nc1ccccc1	> 100 µM (inactive)	> 100 µM (inactive)	> 100 µM (inactive)	> 100 µM (inactive)	> 100 µM (inactive)	> 100 µM (inactive)	> 100 µM (inactive)	> 100 µM (inactive)	> 100 µM (inactive)	> 100 µM (inactive)	4.94 µM (inactive)	> 100 µM (inactive)		> 100 µM (inactive)		> 100 µM (inactive)	> 100 µM (inactive)	> 100 µM (inactive)	> 100 µM (inactive)	> 100 µM (inactive)
COc1ccc([S+]([O-])Cc2cc(OC)c(OC)c(OC)c2)cc1 (configuration not stated)	54.8 µM (inactive)	> 100 µM (inactive)	46.7 µM (inactive)	30.3 µM (inactive)	31.3 µM (inactive)	35.2 µM (inactive)	95.3 µM (inactive)	> 100 µM (inactive)	27 µM (inactive)	52.8 µM (inactive)	> 100 µM (inactive)	42.4 µM (inactive)	> 100 µM (inactive)	69.7 µM (inactive)	29.2 µM (inactive)	58.3 µM (inactive)	42.9 µM (inactive)	39.5 µM (inactive)	91.6 µM (inactive)	
C[C@@H]1CCC2C(C)(C)C(/C=C\C=O)C3(C)OC213 (some centres not stated)		37.8 µM (inactive)	34.8 µM (inactive)	40.9 µM (inactive)	26.4 µM (inactive)	65.2 µM (inactive)	44 µM (inactive)	52.5 µM (inactive)	31.8 µM (inactive)	25.4 µM (inactive)	29.1 µM (inactive)	53.2 µM (inactive)	44.6 µM (inactive)	45.4 µM (inactive)	33.3 µM (inactive)	24.5 µM (inactive)	24.5 µM (inactive)	40.6 µM (inactive)		26.5 µM (inactive)
N#Cc1c(N)c2c(c(-c3ccccc3)c1-c1ccccc1)C(=O)N(N)C2=O	> 100 µM (inactive)	> 100 µM (inactive)	> 100 µM (inactive)	> 100 µM (inactive)	> 100 µM (inactive)	> 100 µM (inactive)	> 100 µM (inactive)	40.3 µM (inactive)	70.6 µM (inactive)	> 100 µM (inactive)	> 100 µM (inactive)	> 100 µM (inactive)	> 100 µM (inactive)	> 100 µM (inactive)	58.7 µM (inactive)	> 100 µM (inactive)	> 100 µM (inactive)	> 100 µM (inactive)		26.9 µM (inactive)
CC(=O)OC1=C(c2ccccc2)S(=O)(=O)c2ccccc21		> 100 µM (inactive)	> 100 µM (inactive)	> 100 µM (inactive)	> 100 µM (inactive)	> 100 µM (inactive)	> 100 µM (inactive)	> 100 µM (inactive)	> 100 µM (inactive)	> 100 µM (inactive)	> 100 µM (inactive)	> 100 µM (inactive)		> 100 µM (inactive)	64 µM (inactive)	> 100 µM (inactive)	> 100 µM (inactive)	> 100 µM (inactive)	> 100 µM (inactive)	> 100 µM (inactive)
O=C(Nc1ccc2ccccc2c1)Nn1cnnc1		> 100 µM (inactive)	> 100 µM (inactive)	> 100 µM (inactive)	> 100 µM (inactive)	> 100 µM (inactive)	> 100 µM (inactive)	80.4 µM (inactive)	> 100 µM (inactive)	> 100 µM (inactive)	> 100 µM (inactive)	> 100 µM (inactive)	> 100 µM (inactive)	> 100 µM (inactive)		> 100 µM (inactive)	> 100 µM (inactive)	> 100 µM (inactive)	> 100 µM (inactive)	> 100 µM (inactive)
CCN1CCCC(Nc2cc(C)nc(NC(=N)Nc3ccc(Cl)c(Cl)c3)n2)C1 (configuration not stated)	2.58 µM (inactive)	2.86 µM (inactive)	1.64 µM (inactive)		3.06 µM (inactive)	0.254 µM (active)	1.77 µM (inactive)	0.982 µM (active)	0.658 µM (active)	1.27 µM (inactive)	4.43 µM (inactive)	1.85 µM (inactive)	2.78 µM (inactive)	2.14 µM (inactive)		2.39 µM (inactive)	2.74 µM (inactive)	1.79 µM (inactive)		1.31 µM (inactive)
COC(=O)C1=C(C(=O)OC)SC(=C2c3ccsc3-c3sccc32)S1	65.8 µM (inactive)	27.3 µM (inactive)	29.4 µM (inactive)	69 µM (inactive)	22.8 µM (inactive)	36.6 µM (inactive)	24.3 µM (inactive)	99.1 µM (inactive)	39.4 µM (inactive)	47.5 µM (inactive)	> 100 µM (inactive)	26.6 µM (inactive)	12.3 µM (inactive)	67.6 µM (inactive)	18.3 µM (inactive)	43.2 µM (inactive)	> 100 µM (inactive)	27.4 µM (inactive)	> 100 µM (inactive)	
